Source: patent US7585896B2, “Composition for the prevention and treatment of kidney dysfunctions and diseases” (Sigma-Tau Industrie Farmaceutiche Riunite S.p.A., priority 1999, dated 2009)

Key:
[1] = system: ochratoxin A-induced renal toxic lesions in Wistar rats; test: Protective activity against renal abnormalities induced by ochratoxin A; type: in vivo; details: for ALP (alkaline phosphatase) / GGT (gamma-glutamyl transferase) / NAG (N-acetyl-β-D-glucosaminidase): 24-hour urine, 300 mg/kg (of each drug) oral for 10 days with ochratoxin A; for effect on enzymuria induced by ochratoxin and serum creatinine levels: ochratoxin-intoxicated rats, result in words
Excerpt: In experimental animals, particularly rats, it is possible to reproduce tubulo-interstitial nephropathy similar to that encountered in man and known as Balkans Endemic Nephropathy (BEN) by means of the administration of a mycotoxin produced by Aspergillus ochraceus which is present as a contaminant in various foodstuffs and is known as ochratoxin A (Kniper-Goodman T., Scott P., Biomed. Environ. Sci., 2, 179, 1989).
The administration of small amounts of this toxin causes a series of renal abnormalities in the rat with a reduction in glomerular filtration and lesions at the level of the proximal tubule to such an extent as to cause renal atrophy.
In this test a batch of Wistar rats with a mean body weight of 200 g was divided into various groups, one of which served as a control group, while another was administered […] of ochratoxin (Sigma Chemical, St. Louis, Mo. U.S.A.) by gastric probe every 48 hours for a period of ten days. The remaining groups, in addition to ochratoxin, also received oral administrations of 300 mg/ks of acetyl L-carnitine or 300 mg/kg of propionyl L-carnitine or a combination of the two carnitines for the entire 10-day treatment period.
At the end of treatment, the animals were placed in metabolic cages and 24-hour urine was submitted to spectrophotometric evaluation of the enzymes alkaline phosphatase (ALP), gamma-glutamyl transferase (GGT) and N-acetyl-β-D-glucosaminidase (NAG) as indicators of renal damage.
Serum creatinine concentrations were also measured.

isolated perfused kidney = test: Protective activity against lithium-induced nephrotoxicity in the isolated perfused kidney (histamine release); parameters: species or system Wistar rats; details: for Percentage changes vs controls in histamine released: lithium 6 mEq/L after 20 min perfusion of carnitine 200 mM/L; for effect on histamine release induced by the renal toxic action of lithium: isolated perfused kidney, result in words
Excerpt: This test was used to assess the protective activity of the combination of acetyl L-carnitine plus propionyl L-carnitine against the well-known nephrotoxic activity of lithium. Lithium presents a particular tropism at the renal tubule level and can cause tubular necrosis.
In this test Wistar rates with a mean body weight of 400 g were anaesthetised and nephrectomised. The excised kidneys were perfused according to the technique described by Shureck (Shureck H. J., Pflügers Arch., 354, 1975) as modified by Maach (Maach T., Kidney Int., 30, 142, 1986; Maach T., Ann. J. Physiol., 238, 1980).
Immediately after isolation of the kidney, the renal artery and outflow vein were catheterised and the resulting preparation was placed in a chamber containing a Krebs solution heated to 37° C. The oxygenised Krebs solution was pumped into the system by means of a pulsatile pump at a rate of 0.8 ml/min/g.
Lithium was administered via the perfusion pump at a dose of 6 mEq/L after perfusion during the previous 20 minutes of a solution containing acetyl L-carnitine or propionyl L-carnitine (200 mM/L) or a combination of the two compounds.
After the lithium infusion, the venous perfusion fluid was collected at five-minute intervals for fifteen minutes and its histamine content was measured with a fluorometric method (Hakanson R., Anal. Biochem., 47, 356, 1972). Histamine release is considered a marker of the severity of tubular damage (Bertelli A., Drugs Exptl. Clin Res., 7, 53, 1981).

[2] = system: glycerol-induced renal insufficiency in male Sprague-Dawley rats; test: Protective activity against glycerol-induced renal insufficiency; type: in vivo; details: for Urea (plasma): glycerol-injected rats, 24 h after injection; for effect on the elevated plasma urea and creatinine concentrations: glycerol-induced acute renal insufficiency, oral or intraperitoneal, result in words
[3] = 5 minutes post-lithium-infusion
[4] = 10 minutes post-lithium-infusion
[5] = 15 minutes post-lithium-infusion

SMILES | ALP (alkaline phosphatase) [1] [U/I] | GGT (gamma-glutamyl transferase) [1] [U/I] | NAG (N-acetyl-β-D-glucosaminidase) [1] [U/I] | effect on enzymuria induced by ochratoxin and serum creatinine levels [1] | Percentage changes vs controls in histamine released (isolated perfused kidney; [3]) [%] | Percentage changes vs controls in histamine released (isolated perfused kidney; [4]) [%] | Percentage changes vs controls in histamine released (isolated perfused kidney; [5]) [%] | effect on histamine release induced by the renal toxic action of lithium (isolated perfused kidney) | Urea (plasma) ([2]; 100 mg/kg (of each drug) i.p.) [mg/100 ml] | Urea (plasma) ([2]; 100 mg/kg (of each drug) oral) [mg/100 ml] | Urea (plasma) ([2]; 500 mg/kg (of each drug) i.p.) [mg/100 ml] | Urea (plasma) ([2]; 500 mg/kg (of each drug) oral) [mg/100 ml] | effect on the elevated plasma urea and creatinine concentrations [2]
CC(=O)O[C@H](CC(=O)[O-])C[N+](C)(C)C [ACL, Acetyl L-carnitine] | 8.8 ± 1.1 | 17.2 ± 1.9 | 48.8 ± 5.1 | reduced | 55.8 ± 6.1 | 36.8 ± 3.1 | 12.5 ± 1.5 | reduced | 104.7 ± 12.4 | 110.9 ± 21.6 | 98.5 ± 10.6 | 105.4 ± 29.4 | only slight changes
CCC(=O)O[C@H](CC(=O)[O-])C[N+](C)(C)C [PC, Propionyl L-carnitine] | 7.5 ± 0.9 | 16.5 ± 2.2 | 44.2 ± 4.5 | reduced | 45.8 ± 4.5 | 30.4 ± 2.9 | 10.4 ± 0.9 | reduced | 100.5 ± 9.8 | 107.4 ± 30.2 | 80.2 ± 6.6 | 90.2 ± 31.4 | only slight changes
